Measurements reported in patent publication US8476264B2, “N-(3-(2-amino-6,6-difluoro-4,4A,5,6,7,7A-hexahydro-cyclopenta[E][1,3]oxazin-4-yl)-phenylamides as BACE1 inhibitors” (Hoffmann-La Roche Inc., priority 2011, dated 2013).

Columns and labels:
CYP2C9 = target: T1, CYP2C9 (Homo sapiens, UniProt P11712); experiment: CYP inhibition assay, CYP2C9; format: in vitro ADME; details: human liver microsomes, diclofenac 4' hydroxylase; read-out: CYP IC50 2C9
T1 construct: 0.2 mg/ml pooled human liver microsomes; from tissue; host or cells: pooled human liver microsomes
T1 sequence (P11712 whole entry): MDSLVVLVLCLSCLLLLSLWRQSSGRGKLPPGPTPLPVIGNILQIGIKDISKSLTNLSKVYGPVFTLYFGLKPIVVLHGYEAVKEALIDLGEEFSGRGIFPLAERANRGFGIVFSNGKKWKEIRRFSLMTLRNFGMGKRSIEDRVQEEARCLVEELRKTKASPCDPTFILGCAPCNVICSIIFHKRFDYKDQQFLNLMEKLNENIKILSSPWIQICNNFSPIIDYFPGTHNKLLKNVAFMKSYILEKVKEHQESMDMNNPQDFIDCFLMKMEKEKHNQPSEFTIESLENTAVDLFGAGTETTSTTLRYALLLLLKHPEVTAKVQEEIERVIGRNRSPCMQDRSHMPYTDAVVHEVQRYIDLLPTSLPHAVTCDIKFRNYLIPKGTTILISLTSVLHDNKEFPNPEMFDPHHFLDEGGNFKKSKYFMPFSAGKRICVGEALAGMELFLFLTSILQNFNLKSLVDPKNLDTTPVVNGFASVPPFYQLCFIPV
Method: (§1) Inhibition of cytochromes P450 (CYPs) 2C9, 2D6 and 3A4 was assessed using human liver microsomes and CYP-selective substrate metabolism reactions. 50 μl incubations were made up containing (finally) 0.2 mg/ml pooled human liver microsomes, 5 μM substrate (diclofenac for CYP2C9 [4′ hydroxylase], dextromethorphan for CYP2D6 [O-demethylase] or midazolam for CYP3A4 [1′ hydroxylase]), 0.25 μL DMSO containing test inhibitor and NADPH regenerating system. Test inhibitor concentrations of 50, 16.7, 5.6, 1.9, 0.6 and 0.2 μM were assessed in singlicate. Incubations were pre-warmed to 37° C. for 10 minutes before initiation by addition of NADPH regenerating system. Incubations were quenched after 5 minutes (20 minutes for dextromethorphan) by addition of 50 μl cold acetonitrile containing 20 ng/ml 4-OH-diclofenac-13C6, 20 ng/mL dextrorphan-D3 and 20 ng/mL 1-OH-midazolam-D4. Quenched incubates were stored at −20° C. for at least 1 hour before centrifugation (20,000×g, 20 minutes). Supernatants were removed and diluted 1:1 with water prior to analysis using a RapidFire sample injector system and API4000 mass spectrometer. Peak areas for substrate, metabolite and stable-labelled metabolite standard were determined using MS/MS. The peak area ratios between the metabolite generated by the enzymatic reaction and the internal standard were used in subsequent calculations. The percentage of (DMSO) control activity was calculated for each incubate and IC50 values estimated by non-linear regression. Sulfaphenazole, quinidine or ketoconazole were tested in each CYP2C9, CYP2D6 or CYP3A4 inhibition experiment, respectively, to ensure assay sensitivity and reproducibility. (Validated assays for human cytochrome P450 activities, R. L. Walsky and R. S. Obach, Drug Metabolism and Disposition 32: 647-660, 2004. and S. Fowler and H. Zhang, The AAPS Journal, Vol. 10, No. 2, 410-424, 2008.)

[1] = Detection of glutathione conjugates; format: in vitro ADME, human; parameters: key: NF: in vitro no significant adduct formation relative to control; details: in vitro, relative to control
Description: Detection of Glutathione Conjugates
The assay conditions for the detection of glutathione conjugates follow the procedure described by C. M. Dieckhaus et al.

[2] = target: T2, recombinant human cathepsin E (Homo sapiens, UniProt P14091); experiment: Cathepsin E fluorescent substrate kinetic assay; format: biochemical; details: pH 4.5, substrate MR121-[…]
T2 construct: purchased R&D Systems
T2 sequence (P14091 54-396): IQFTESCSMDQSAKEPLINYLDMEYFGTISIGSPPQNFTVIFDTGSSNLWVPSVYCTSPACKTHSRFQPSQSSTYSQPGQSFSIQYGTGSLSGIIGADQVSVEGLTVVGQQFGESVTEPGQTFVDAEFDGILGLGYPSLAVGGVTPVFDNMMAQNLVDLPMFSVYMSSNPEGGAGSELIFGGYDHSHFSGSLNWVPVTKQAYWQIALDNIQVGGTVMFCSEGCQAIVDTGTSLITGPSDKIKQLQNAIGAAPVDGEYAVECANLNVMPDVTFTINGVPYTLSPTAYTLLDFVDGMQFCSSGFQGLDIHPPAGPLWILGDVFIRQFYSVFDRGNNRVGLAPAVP
Description: (§2) Cathepsin D and Cathepsin E Fluorescent Substrate Kinetic Assays
(§3) The MR121 fluorescence assays described below are based on the fact that MR121 forms a non-fluorescent ground state complex with tryptophan. In solution this formation occurs at millimolar concentrations of tryptophan. The mechanism can be used to design a generic biochemical assay for proteases. A substrate peptide is labeled at the N-terminus with tryptophan and at the C-terminus with the fluorophore MR121 (for cathepsin D the 10 amino acid peptide […]-MR121 was used; for cathepsin E, MR121-[…] was used). In absence of protease activity, the substrates remain intact and the MR121 fluorescence is reduced by the high local Trp-concentration. If the substrates are cleaved by the enzymes the MR121 fluorescence is recovered.
(§4) The fluorescent substrate cathepsin D and cathepsin E kinetic assays were performed at room temperature in 384-well microtiter plates (black with clear flat bottom, non binding surface plates from Corning) in a final volume of 51 μl. The test compounds were serially diluted in DMSO (15 concentrations, ⅓ dilution steps) and 1 μl of diluted compounds were mixed for 10 min with 40 μl of cathepsin D (from human liver, Calbiochem) diluted in assay buffer (100 mM sodium acetate, 0.05% BSA, pH 5.5; final concentration: 200 nM) or with 40 μl of recombinant human cathepsin E (R&D Systems) diluted in assay buffer (100 mM sodium acetate, 0.05% BSA, pH 4.5; final concentration: 0.01 nM). After addition of 10 μl of the cathepsin D substrate […]-MR121 diluted in cathepsin D assay buffer (final concentration: 300 nM) or […] cathepsin E substrate MR121-[…] diluted in cathepsin E assay buffer (final concentration: 300 nM), the plates were strongly shaken for 2 minutes. The enzymatic reaction was followed in a plate: vision reader (Perkin Elmer) (excitation wavelength: 630 nm; emission: 695 nm) for at least 30 minutes in a kinetic measurement detecting an increase of MR121 fluorescence during the reaction time. The slope in the linear range of the kinetic was calculated and the IC50 of the test compounds were determined using a four parameter equation for curve fitting.

CYP2D6 = target: T3, CYP2D6 (Homo sapiens, UniProt P10635); experiment: CYP inhibition assay, CYP2D6; format: in vitro ADME; details: human liver microsomes, dextromethorphan O-demethylase; read-out: CYP IC50 2D6
T3 construct: 0.2 mg/ml pooled human liver microsomes; from tissue; host or cells: pooled human liver microsomes
T3 sequence (P10635 whole entry): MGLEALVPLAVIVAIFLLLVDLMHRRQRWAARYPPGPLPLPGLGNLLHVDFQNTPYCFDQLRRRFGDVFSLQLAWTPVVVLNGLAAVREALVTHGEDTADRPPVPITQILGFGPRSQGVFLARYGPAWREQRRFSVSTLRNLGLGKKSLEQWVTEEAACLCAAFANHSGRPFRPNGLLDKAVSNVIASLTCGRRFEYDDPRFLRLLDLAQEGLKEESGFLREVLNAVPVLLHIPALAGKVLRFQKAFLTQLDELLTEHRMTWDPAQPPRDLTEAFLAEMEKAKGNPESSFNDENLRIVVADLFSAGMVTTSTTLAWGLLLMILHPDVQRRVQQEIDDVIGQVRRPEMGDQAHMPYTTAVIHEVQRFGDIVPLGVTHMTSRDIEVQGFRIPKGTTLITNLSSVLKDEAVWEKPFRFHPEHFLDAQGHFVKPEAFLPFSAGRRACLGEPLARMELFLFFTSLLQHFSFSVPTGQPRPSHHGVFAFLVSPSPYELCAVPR
Method: as §1

CYP3A4 = target: T4, CYP3A4 (Homo sapiens, UniProt P08684); experiment: CYP inhibition assay, CYP3A4; format: in vitro ADME; details: human liver microsomes, midazolam 1' hydroxylase; read-out: CYP IC50 3A4
T4 construct: 0.2 mg/ml pooled human liver microsomes; from tissue; host or cells: pooled human liver microsomes
T4 sequence (P08684 whole entry): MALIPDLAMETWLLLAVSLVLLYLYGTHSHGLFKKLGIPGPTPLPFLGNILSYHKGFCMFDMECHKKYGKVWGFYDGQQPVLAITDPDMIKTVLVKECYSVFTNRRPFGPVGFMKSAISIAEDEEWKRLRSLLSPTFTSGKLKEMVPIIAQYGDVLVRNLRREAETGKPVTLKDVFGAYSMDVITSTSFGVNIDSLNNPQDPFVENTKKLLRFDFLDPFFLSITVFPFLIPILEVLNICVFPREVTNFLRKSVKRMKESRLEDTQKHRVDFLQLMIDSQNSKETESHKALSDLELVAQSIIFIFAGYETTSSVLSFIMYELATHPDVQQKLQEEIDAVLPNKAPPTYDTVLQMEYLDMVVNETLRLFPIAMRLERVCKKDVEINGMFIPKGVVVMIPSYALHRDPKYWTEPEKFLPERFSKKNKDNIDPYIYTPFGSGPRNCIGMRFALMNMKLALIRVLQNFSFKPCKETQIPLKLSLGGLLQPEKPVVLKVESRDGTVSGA
Method: as §1

[3] = target: T5, cathepsin D (from human liver) (Homo sapiens, UniProt P07339); experiment: Cathepsin D fluorescent substrate kinetic assay; format: biochemical; details: pH 5.5, substrate […]-MR121
T5 construct: cathepsin D (from human liver, Calbiochem) diluted in assay buffer; purchased Calbiochem; host or cells: purified from human liver
T5 sequence (P07339 65-162 limits assumed): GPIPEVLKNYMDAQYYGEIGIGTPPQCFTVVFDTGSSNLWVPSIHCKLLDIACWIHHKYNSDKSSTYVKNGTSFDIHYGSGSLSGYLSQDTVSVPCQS
T5 sequence (P07339 169-412 limits assumed): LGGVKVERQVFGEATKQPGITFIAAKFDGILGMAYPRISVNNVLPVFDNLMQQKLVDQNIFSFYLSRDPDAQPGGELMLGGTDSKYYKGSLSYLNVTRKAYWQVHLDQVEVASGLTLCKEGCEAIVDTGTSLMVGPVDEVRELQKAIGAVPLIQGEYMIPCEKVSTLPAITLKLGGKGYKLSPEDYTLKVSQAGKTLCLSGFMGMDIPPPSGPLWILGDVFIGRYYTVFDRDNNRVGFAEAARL
Description: as §2, §3, §4

hERG channel = target: T6, hERG channel (Homo sapiens, UniProt Q12809); experiment: PatchXpress hERG inhibition assay; format: cell-based; details: @ 1 μM; CHO cells transfected with hERG, automated patch clamp
T6 construct: expressed in transfected cells; host or cells: CHO cells
T6 sequence (Q12809 whole entry): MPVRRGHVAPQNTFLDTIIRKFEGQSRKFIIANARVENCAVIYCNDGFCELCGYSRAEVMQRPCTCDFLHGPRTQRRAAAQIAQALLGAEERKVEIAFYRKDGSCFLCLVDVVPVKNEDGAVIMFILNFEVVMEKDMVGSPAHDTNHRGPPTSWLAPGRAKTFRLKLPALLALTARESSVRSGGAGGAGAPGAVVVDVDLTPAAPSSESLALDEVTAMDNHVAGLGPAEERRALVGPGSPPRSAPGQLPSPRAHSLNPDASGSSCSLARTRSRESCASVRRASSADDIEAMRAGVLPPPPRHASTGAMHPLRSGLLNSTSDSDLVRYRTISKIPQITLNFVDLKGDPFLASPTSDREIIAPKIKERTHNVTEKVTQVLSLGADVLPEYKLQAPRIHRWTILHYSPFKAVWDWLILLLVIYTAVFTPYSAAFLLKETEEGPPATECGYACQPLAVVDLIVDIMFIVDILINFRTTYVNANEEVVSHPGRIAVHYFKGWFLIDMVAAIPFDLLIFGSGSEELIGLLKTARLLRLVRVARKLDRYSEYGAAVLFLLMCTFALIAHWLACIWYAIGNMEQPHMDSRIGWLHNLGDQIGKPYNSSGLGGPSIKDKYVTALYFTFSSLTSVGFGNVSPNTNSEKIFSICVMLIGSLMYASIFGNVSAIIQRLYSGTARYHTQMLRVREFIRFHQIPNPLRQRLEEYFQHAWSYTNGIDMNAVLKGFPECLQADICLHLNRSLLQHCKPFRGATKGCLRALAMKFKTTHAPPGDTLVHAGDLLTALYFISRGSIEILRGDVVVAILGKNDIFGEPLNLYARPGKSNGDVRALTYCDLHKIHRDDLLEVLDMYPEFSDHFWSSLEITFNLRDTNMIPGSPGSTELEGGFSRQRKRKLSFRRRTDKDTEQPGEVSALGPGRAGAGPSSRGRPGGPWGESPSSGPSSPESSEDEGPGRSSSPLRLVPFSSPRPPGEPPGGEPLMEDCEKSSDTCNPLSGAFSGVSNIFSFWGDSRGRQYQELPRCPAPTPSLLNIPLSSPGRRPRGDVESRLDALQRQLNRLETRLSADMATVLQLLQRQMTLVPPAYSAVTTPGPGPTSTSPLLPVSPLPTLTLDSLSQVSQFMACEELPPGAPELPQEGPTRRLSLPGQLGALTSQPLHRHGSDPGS
Method: PatchXpress hERG Inhibition Assay
The detailed method to quantify hERG channel inhibition by the automated patch clamp system PatchXpress® 7000A (Molecular Devices, Sunnyvale, Calif.) has been described by Guo et al. (J of Pharmacol & Tox Methods, (2005) 52(1):123-35). In brief, Chinese hamster ovary (CHO) cells transfected with the human ether-a-go-go-related gene (hERG) was cultured in Ex-cell 302 media supplemented with 10% fetal bovine serum, 2 mM glutamine and 0.25 mg/ml geneticin and maintained in a CO2 incubator at 37° C. For patch clamp electrophysiology, the external buffer contained (in mM): 150 NaCl, 10 Hepes, 4 KCl, 1.2 CaCl2, 1 MgCl2, pH 7.4 adjusted with […] and the internal recording solution contained (in mM): 140 KCl, 6 EGTA, 5 Hepes, MgCl2, 5 ATP-Na2, pH 7.2 adjusted with KOH. Once the cell was loaded in the recording chamber and formed a giga ohm seal with the planar glass electrodes (Sealchip™), a whole-cell configuration was achieved by rupturing the cell membrane. The membrane potential was then clamped at −80 mV and the hERG channel activated by a 1-second depolarizing pulse delivered at 0.1 Hz, the hERG current was measured during the 500 ms-repolarizing pulse to −40 mV. After an acceptable hERG current recording was obtained, the cell was first exposed to 0.3% DMSO as the vehicle control, followed by the test article in three ascending, full-log interval concentrations and finally E-4031 at 1 μM (as the positive control) to block the hERG current completely. […] The inhibition of hERG current at each concentration was normalized to that recorded in the vehicle control, and fitted with Hill equation to calculate IC20 and/or IC50.

in vivo effect = details: % of control @ 30 mg/kg p.o.
BACE1 = target: T7, BACE1 (Homo sapiens, UniProt P56817); experiment: Cellular Aβ-lowering assay (Aβ40 ELISA); format: cell-based; details: HEK293 cells stably expressing human APP wt (APP695); Aβ40 in supernatant after 18-20 hrs; read-out: BACE1 cell act. Aβ40 IC50
T7 construct: Human HEK293 cells which are stably transfected with a vector expressing a cDNA of the human APP wt gene (APP695); endogenous in cells; host or cells: HEK293 stably transfected with human APP695 wt
T7 sequence (P56817 46-501): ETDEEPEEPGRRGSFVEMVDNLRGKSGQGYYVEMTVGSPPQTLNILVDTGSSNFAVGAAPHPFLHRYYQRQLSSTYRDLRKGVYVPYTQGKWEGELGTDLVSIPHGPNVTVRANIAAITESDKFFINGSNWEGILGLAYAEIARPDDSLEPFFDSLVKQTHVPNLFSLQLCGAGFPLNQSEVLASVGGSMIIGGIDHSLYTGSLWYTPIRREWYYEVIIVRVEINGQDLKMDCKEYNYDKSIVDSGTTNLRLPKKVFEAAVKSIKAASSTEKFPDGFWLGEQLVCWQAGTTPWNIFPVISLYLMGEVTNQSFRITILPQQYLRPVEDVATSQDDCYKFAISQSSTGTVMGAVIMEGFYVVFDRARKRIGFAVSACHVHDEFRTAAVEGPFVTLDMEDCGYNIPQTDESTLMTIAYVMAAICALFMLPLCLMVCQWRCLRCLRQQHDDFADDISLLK
Method: Cellular Aβ-Lowering Assay:
Human HEK293 cells which are stably transfected with a vector expressing a cDNA of the human APP wt gene (APP695) were used to assess the potency of the compounds in a cellular assay. The cells were seeded in 96-well microtiter plates in cell culture medium (Iscove, plus 10% (v/v) fetal bovine serum, glutamine, penicillin/streptomycin) to about 80% confluence and the compounds were added at a 10× concentration in 1/10 volume of medium without FCS containing 8% DMSO (final concentration of DMSO was kept at 0.8% v/v). After 18-20 hrs incubation at 37° C. and 5% CO2 in a humidified incubator the culture supernatant was harvested for the determination of Aβ40 concentrations. 96 well ELISA plates (e.g., Nunc MaxiSorb) were coated with monoclonal antibody which specifically recognize the C-terminal end of Aβ40 (Brockhaus et al., NeuroReport 9, 1481-1486; 1998). After blocking of non-specific binding sites with e.g. 1% BSA and washing, the culture supernatants were added in suitable dilutions together with a horseradish peroxidase-coupled Aβ detection antibody (e.g., antibody 4G8, Senetek, Maryland Heights, Mo.) and incubated for 5 to 7 hrs. Subsequently the wells of the microtiter plate were washed extensively with Tris-buffered saline containing 0.05% Tween 20 and the assay was developed with tetramethylbenzidine/H2O2 in citric acid buffer. After stopping the reaction with one volume 1 N H2SO4 the reaction was measured in an ELISA reader at 450 nm wavelength. The concentrations of Aβ in the culture supernatants were calculated from a standard curve obtained with known amounts of pure Aβ peptide.

| Compound | IC50 (CYP2C9) [µM] | GSH human (glutathione adduct formation) [1] | IC50 [2] [µM] | IC50 (CYP2D6) [µM] | IC50 (CYP3A4) [µM] | IC50 [3] [µM] | hERG inhibition (hERG channel) | in vivo effect (in vivo effect) | IC50 (BACE1) [µM] |
| --- | --- | --- | --- | --- | --- | --- | --- | --- | --- |
| C[C@]1(c2cc(NC(=O)c3ccc(C#N)cn3)ccc2F)N=C(N)O[C@@H]2CC(F)(F)C[C@@H]21 [Example 2, 5-Cyano-pyridine-2-carboxylic acid [3-((4S,4aR,7aR)-2-amino-6,6-difluoro-4-methyl 4,4a,5,6,7,7a-hexahydro-cyclopenta[e][1,3]oxazin-4-yl)-4-fluoro-phenyl]-amide] | > 10 | NF | 101 | > 10 | > 10 | 120 | A (less than 20% inhibition @ 1 μM) | A (less than 50% of control @ 30 mg/kg p.o.) |  |
| C[C@]1(c2cc(NC(=O)c3ccc(Cl)cn3)ccc2F)N=C(N)O[C@@H]2CC(F)(F)C[C@@H]21 [Example 1, 5-Chloro-pyridine-2-carboxylic acid [3-((4S,4aR,7aR)-2-amino-6,6-difluoro-4-methyl-4,4a,5,6,7,7a-hexahydro-cyclopenta[e][1,3]oxazin-4-yl)-4-fluoro-phenyl]-amide] | > 10 | NF | 133 | 1 to 10 | > 10 | 52 |  | A (less than 50% of control @ 30 mg/kg p.o.) | 0.0004 |
